Seven compounds from patent US10800791B2, “Triazole ACC inhibitors and uses thereof” (Gilead Apollo, LLC, priority 2015, dated 2020) can be followed below.

One assay concerns the target human (hACC2) (Homo sapiens, UniProt O00763). The assay can be described thus: In vitro ACC inhibition assay (ADP-Glo), hACC2. The following applies: 5 nM ACC2, 20 μM ATP, 20 μM acetyl-CoA. In kind it is biochemical. The method, then: The detailed procedure is as follows. […] 10 μL ADP glo reagent was added. […] 20 μL kinase detection reagent was added.
A further assay deals with C. albicans. The assay can be described thus: Antifungal Activity Assay (broth microtiter MIC), C. albicans. In kind it is cell-based, Candida albicans. The following applies: Candida albicans, ATCC90028, 48 h. An outline of the steps: (§1)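 MICs were scored by eye at 48 h relative to the growth control. Plates followed CLSI M27-A3, with Candida suspensions in RPMI 1640+MOPS giving a final 2.5×10^3 CFU/mL; the colonies came from Sabouraud agar grown overnight at 35 °C.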

The next assay concerns C. krusei. The assay can be described thus: Antifungal Activity Assay (broth microtiter MIC), C. krusei. In kind it is cell-based, Candida krusei. The following applies: Pichia kudriavzevii, ATCC6258, 48 h. An outline of the steps:
as §1

Another assay concerns C. parapsilosis. The assay can be described thus: Antifungal Activity Assay (broth microtiter MIC), C. parapsilosis. Format: cell-based, Candida parapsilosis. The following applies: Lodderomyces parapsilosis, ATCC22019, 48 h. An outline of the steps: as §1
In another assay the target is fungal (fACC2) (UniProt Q00955). The following applies: read-out: fACC2 (in vitro ACC2 Inhibition Assay, IC50), ADP-Glo, 5 nM ACC2, 20 μM ATP, 20 μM acetyl-CoA.
fungal (fACC2), sequence (Q00955 whole entry): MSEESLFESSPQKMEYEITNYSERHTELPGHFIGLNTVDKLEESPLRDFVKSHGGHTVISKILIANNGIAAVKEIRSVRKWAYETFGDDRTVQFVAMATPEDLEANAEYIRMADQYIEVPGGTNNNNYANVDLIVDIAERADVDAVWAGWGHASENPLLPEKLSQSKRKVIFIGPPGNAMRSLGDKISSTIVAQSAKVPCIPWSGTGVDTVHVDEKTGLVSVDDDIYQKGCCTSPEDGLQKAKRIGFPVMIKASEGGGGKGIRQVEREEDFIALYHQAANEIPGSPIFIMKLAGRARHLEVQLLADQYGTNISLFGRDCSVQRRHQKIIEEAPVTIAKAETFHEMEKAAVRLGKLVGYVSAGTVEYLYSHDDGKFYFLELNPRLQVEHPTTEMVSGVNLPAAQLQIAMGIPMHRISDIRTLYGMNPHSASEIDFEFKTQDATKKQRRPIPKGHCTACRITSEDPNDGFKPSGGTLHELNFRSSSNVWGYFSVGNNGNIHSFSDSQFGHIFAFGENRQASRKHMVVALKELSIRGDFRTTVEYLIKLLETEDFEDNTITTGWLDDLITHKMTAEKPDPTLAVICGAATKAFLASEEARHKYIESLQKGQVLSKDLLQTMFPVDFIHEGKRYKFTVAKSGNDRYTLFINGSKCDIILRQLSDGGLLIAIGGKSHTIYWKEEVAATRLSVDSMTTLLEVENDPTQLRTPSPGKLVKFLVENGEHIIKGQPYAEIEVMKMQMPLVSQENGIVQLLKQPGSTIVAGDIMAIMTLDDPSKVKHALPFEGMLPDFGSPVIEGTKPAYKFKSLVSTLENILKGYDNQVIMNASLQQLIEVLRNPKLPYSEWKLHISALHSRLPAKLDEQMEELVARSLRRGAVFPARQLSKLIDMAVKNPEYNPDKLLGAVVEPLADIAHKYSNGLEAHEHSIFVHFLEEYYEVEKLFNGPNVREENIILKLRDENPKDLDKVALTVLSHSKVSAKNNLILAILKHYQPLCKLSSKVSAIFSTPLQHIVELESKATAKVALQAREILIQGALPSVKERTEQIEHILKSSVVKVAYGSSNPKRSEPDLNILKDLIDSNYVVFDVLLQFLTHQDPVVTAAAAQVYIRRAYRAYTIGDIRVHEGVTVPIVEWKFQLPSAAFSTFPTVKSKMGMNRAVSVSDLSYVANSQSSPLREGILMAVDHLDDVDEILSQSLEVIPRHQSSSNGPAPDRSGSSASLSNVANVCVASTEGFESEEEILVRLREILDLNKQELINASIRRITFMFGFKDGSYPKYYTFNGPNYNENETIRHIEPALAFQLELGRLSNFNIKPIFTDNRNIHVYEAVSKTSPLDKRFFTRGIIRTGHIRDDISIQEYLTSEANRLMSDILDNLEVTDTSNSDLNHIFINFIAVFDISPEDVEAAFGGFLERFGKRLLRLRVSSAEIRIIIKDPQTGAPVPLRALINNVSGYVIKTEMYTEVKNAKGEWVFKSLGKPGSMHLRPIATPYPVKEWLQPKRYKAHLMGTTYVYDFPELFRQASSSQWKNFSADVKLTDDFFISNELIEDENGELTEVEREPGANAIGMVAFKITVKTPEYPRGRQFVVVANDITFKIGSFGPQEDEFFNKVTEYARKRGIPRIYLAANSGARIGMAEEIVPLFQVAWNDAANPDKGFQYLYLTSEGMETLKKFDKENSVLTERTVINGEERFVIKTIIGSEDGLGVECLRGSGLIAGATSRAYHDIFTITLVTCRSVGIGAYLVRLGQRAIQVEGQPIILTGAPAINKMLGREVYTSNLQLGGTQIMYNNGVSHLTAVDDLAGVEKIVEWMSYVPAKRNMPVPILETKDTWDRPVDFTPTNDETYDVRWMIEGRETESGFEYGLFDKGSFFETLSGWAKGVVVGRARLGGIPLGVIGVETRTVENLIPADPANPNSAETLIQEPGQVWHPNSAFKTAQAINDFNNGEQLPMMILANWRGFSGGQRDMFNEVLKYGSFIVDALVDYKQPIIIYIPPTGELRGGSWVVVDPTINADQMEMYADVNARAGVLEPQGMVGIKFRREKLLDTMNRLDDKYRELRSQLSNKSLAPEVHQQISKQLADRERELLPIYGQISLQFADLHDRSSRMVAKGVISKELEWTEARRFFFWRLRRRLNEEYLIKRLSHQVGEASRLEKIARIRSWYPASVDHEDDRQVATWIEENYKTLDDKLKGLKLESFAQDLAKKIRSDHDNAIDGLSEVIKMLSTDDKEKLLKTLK
Setting [1] is: Table 3a, ATCC 90028, 3 replicates, MIC recorded at 48 h, read-out: MIC, C. albicans ATCC 90028.
Setting [2] is: Table 3b (additional results), ATCC 90028, 3 replicates, MIC recorded at 48 h, read-out: MIC, C. albicans ATCC 90028.
The mark [3] stands for this setting: Table 3a, ATCC 6258, 3 replicates, MIC recorded at 48 h, read-out: MIC, C. krusei ATCC 6258.
[4] abbreviates: Table 3b (additional results), ATCC 6258, 3 replicates, MIC recorded at 48 h, read-out: MIC, C. krusei ATCC 6258.
[5] abbreviates: Table 3a, ATCC 22019, 3 replicates, MIC recorded at 48 h, read-out: MIC, C. parapsilosis ATCC 22019.
Where [6] appears, read: Table 3b (additional results), ATCC 22019, 3 replicates, MIC recorded at 48 h, read-out: MIC, C. parapsilosis ATCC 22019.
The mark [7] stands for this setting: read-out: MIC, C. albicans ATCC 90028, Table 3b (additional results), 3 replicates, MIC recorded at 48 h.
[8] abbreviates: read-out: MIC, C. krusei ATCC 6258, Table 3b (additional results), 3 replicates, MIC recorded at 48 h.
Where [9] appears, read: read-out: MIC, C. parapsilosis ATCC 22019, Table 3b (additional results), 3 replicates, MIC recorded at 48 h.
[10] abbreviates: read-out: MIC, C. albicans ATCC 90028, Table 3a, 3 replicates, MIC recorded at 48 h.
[11] abbreviates: read-out: MIC, C. krusei ATCC 6258, Table 3a, 3 replicates, MIC recorded at 48 h.
Where [12] appears, read: read-out: MIC, C. parapsilosis ATCC 22019, Table 3a, 3 replicates, MIC recorded at 48 h.

Converted amounts (≈) assume the structure as drawn. Where two headings read alike, the source gives them in different places.

human (hACC2), sequence (O00763 whole entry): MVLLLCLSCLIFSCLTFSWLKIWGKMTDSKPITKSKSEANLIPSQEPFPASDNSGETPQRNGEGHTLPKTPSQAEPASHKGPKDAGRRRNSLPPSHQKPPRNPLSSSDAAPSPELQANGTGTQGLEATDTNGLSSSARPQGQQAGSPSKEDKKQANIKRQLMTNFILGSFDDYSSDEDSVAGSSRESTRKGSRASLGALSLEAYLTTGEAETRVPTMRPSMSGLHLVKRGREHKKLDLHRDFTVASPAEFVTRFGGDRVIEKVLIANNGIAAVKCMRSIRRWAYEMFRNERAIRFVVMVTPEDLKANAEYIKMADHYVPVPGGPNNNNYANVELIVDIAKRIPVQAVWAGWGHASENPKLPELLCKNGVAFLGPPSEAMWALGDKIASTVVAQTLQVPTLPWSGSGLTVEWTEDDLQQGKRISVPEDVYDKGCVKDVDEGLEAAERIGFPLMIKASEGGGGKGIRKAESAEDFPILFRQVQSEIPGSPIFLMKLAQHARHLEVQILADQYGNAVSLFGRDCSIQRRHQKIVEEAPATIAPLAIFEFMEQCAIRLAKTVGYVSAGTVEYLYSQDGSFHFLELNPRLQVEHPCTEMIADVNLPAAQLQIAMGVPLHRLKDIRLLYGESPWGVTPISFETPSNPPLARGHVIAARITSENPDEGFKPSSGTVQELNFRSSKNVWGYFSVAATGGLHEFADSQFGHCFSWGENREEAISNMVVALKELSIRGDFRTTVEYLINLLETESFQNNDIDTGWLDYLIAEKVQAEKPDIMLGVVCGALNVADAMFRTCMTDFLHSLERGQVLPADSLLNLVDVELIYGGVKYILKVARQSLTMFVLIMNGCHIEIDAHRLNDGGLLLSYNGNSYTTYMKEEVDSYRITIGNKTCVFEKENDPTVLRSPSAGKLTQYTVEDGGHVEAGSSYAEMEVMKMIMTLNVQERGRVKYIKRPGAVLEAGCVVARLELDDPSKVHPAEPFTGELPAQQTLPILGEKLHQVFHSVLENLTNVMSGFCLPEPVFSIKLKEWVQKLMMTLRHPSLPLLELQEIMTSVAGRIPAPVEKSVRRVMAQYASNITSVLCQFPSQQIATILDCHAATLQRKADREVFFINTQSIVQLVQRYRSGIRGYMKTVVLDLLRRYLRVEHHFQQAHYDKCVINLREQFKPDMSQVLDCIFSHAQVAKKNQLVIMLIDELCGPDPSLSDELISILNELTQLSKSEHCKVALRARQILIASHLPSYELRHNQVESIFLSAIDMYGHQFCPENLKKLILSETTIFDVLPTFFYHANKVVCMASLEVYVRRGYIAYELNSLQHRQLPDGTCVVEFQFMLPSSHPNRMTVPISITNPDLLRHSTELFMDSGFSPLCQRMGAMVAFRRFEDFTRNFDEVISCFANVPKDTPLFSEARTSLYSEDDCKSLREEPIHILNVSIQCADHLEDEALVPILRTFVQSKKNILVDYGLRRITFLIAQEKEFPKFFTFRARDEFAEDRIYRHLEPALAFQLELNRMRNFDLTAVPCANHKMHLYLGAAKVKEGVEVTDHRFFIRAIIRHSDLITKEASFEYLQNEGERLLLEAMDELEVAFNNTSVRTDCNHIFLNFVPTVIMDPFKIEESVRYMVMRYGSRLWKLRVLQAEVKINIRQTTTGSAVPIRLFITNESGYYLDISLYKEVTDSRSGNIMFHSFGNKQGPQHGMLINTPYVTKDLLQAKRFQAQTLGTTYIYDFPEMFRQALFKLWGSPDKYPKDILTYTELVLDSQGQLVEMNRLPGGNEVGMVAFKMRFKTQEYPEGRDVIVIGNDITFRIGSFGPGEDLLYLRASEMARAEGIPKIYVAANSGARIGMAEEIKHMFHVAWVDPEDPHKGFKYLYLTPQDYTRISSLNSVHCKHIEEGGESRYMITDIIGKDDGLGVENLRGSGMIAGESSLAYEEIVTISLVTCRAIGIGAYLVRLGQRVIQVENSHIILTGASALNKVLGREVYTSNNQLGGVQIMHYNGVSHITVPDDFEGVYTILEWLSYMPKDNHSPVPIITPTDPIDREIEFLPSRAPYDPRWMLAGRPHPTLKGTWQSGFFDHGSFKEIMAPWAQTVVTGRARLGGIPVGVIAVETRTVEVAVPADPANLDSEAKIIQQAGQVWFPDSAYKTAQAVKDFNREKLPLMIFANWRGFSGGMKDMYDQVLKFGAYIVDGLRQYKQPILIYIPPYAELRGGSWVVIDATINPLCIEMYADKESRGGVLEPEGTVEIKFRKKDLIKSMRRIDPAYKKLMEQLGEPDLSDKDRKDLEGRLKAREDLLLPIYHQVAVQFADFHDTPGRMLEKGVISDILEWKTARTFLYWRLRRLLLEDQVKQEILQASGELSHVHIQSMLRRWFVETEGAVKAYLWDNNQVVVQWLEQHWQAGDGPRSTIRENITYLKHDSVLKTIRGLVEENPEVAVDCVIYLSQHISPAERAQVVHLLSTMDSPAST

For orientation: IC50 means the midpoint of a concentration-inhibition curve. As a reminder, the MIC is the smallest concentration in the dilution series that meets the test's criterion for growth inhibition. For `COc1ccc(F)cc1[C@H](Cn1c(=O)n(C(C)(C)C(N)=O)c(=O)c2c(C)c(-n3nccn3)sc21)OC[C@H](C)C#N` [Compound I-153], the IC50 at human (hACC2) (Table 2a) was in the range of 1 to 5 nM; against human (hACC2) (Table 2b, additional results), 1 to 5 nM; at fungal (fACC2) (Table 2a) it was 0.4 to 1 nM; on fungal (fACC2) (Table 2b, additional results) it was 0.3 to 1 nM. Further, the MIC in the assay with C. albicans (setting [1]) was 2.1 to 4 µg/mL (≈ 3.69 to 7.02 µM); in the assay on C. albicans (setting [2]) it was 1.01 to 2 µg/mL (≈ 1.77 to 3.51 µM); in the assay on C. krusei (setting [3]) it was 2.1 to 4 µg/mL (≈ 3.69 to 7.02 µM); in the assay on C. krusei (setting [4]), 2.01 to 4 µg/mL (≈ 3.53 to 7.02 µM); in the assay on C. parapsilosis (setting [5]), 2.1 to 4 µg/mL (≈ 3.69 to 7.02 µM); in the assay on C. parapsilosis (setting [6]), greater than 4.01 µg/mL.

Turning to `COc1ccc(F)cc1[C@H](Cn1c(=O)n(C(C)(C)C(N)=O)c(=O)c2c(C)c(-n3nccn3)sc21)OCC(C)(C)C#N` [Compound I-155], the concentration for half-maximal inhibition (IC50) at human (hACC2) (Table 2a) lay within 5 to 10 nM; against human (hACC2) (Table 2b, additional results), 5 to 10 nM; at fungal (fACC2) (Table 2a), 1 to 5 nM; on fungal (fACC2) (Table 2b, additional results), 1 to 5 nM. In addition, the MIC is 0.25 to 1 µg/mL (≈ 0.428 to 1.71 µM) in the assay on C. albicans (setting [1]); 1.01 to 2 µg/mL (≈ 1.73 to 3.43 µM) in the assay with C. albicans (setting [2]); 1.1 to 2 µg/mL (≈ 1.88 to 3.43 µM) in the assay on C. krusei (setting [3]); 2.01 to 4 µg/mL (≈ 3.44 to 6.85 µM) with C. krusei (setting [4]); 2.1 to 4 µg/mL (≈ 3.6 to 6.85 µM) in the assay with C. parapsilosis (setting [5]); greater than 4.01 µg/mL in the assay with C. parapsilosis (setting [6]).

Regarding `COc1ccc(F)cc1[C@H](Cn1c(=O)n(C(C)(C)C(=O)O)c(=O)c2c(C)c(-n3nccn3)sc21)O[C@H]1CC[C@@H](C#N)CC1` [Compound I-156], the IC50 fell in the range of 10 to 40 nM on human (hACC2) (Table 2a); 10 to 40 nM at human (hACC2) (Table 2b, additional results); 0.4 to 1 nM on fungal (fACC2) (Table 2a); 0.3 to 1 nM at fungal (fACC2) (Table 2b, additional results). Further, the values for the MIC in the assay on C. albicans (setting [7]), in the assay on C. krusei (setting [8]) and in the assay with C. parapsilosis (setting [9]) were 1.01 to 2 µg/mL (≈ 1.65 to 3.28 µM), 1.01 to 2 µg/mL (≈ 1.65 to 3.28 µM) and 2.01 to 4 µg/mL (≈ 3.29 to 6.55 µM), respectively.

For `COc1ccc(F)cc1[C@H](Cn1c(=O)n(C(C)(C)C(=O)O)c(=O)c2c(C)c(-n3nccn3)sc21)O[C@H]1CC[C@H](C#N)CC1` [Compound I-157], the IC50 at human (hACC2) (Table 2a) is 5 to 10 nM; against human (hACC2) (Table 2b, additional results) it was 5 to 10 nM; at fungal (fACC2) (Table 2a), 1 to 5 nM; on fungal (fACC2) (Table 2b, additional results) it was 1 to 5 nM. The MIC with C. albicans (setting [2]) was 1.01 to 2 µg/mL (≈ 1.65 to 3.28 µM); in the assay on C. krusei (setting [4]), 1.01 to 2 µg/mL (≈ 1.65 to 3.28 µM); in the assay with C. parapsilosis (setting [6]), 2.01 to 4 µg/mL (≈ 3.29 to 6.55 µM).

For the compound `COc1ccc(F)cc1[C@H](Cn1c(=O)n(C(C)(C)C(=O)NC(C)C)c(=O)c2c(C)c(-n3nccn3)sc21)O[C@H]1CC[C@@H](C#N)CC1` [Compound I-158], the IC50 on human (hACC2) (Table 2a) fell in the range of 10 to 40 nM; at human (hACC2) (Table 2b, additional results) it was 10 to 40 nM; on fungal (fACC2) (Table 2a), 1 to 5 nM; on fungal (fACC2) (Table 2b, additional results) it was 1 to 5 nM. Further, the MIC in the assay on C. albicans (setting [10]) was 0.25 to 1 µg/mL (≈ 0.384 to 1.53 µM); with C. albicans (setting [7]) it was 0.25 to 1 µg/mL (≈ 0.384 to 1.53 µM); in the assay with C. krusei (setting [11]) it was 0.25 to 1 µg/mL (≈ 0.384 to 1.53 µM); in the assay with C. krusei (setting [8]) it was 0.06 to 0.249 µg/mL (≈ 0.0921 to 0.382 µM); with C. parapsilosis (setting [12]), 1.1 to 2 µg/mL (≈ 1.69 to 3.07 µM); in the assay with C. parapsilosis (setting [9]), 0.25 to 1 µg/mL (≈ 0.384 to 1.53 µM).

Consider `COc1ccc(F)cc1[C@H](Cn1c(=O)n(C(C)(C)C(=O)NC(C)C)c(=O)c2c(C)c(-n3nccn3)sc21)O[C@H]1CC[C@H](C#N)CC1` [Compound I-159], for which the IC50 at human (hACC2) (Table 2a) lay in the range of 1 to 5 nM; against human (hACC2) (Table 2b, additional results), 1 to 5 nM; on fungal (fACC2) (Table 2a) it was 1 to 5 nM; on fungal (fACC2) (Table 2b, additional results), 1 to 5 nM. Further, the MIC in the assay on C. albicans (setting [10]) is 0.25 to 1 µg/mL (≈ 0.384 to 1.53 µM); with C. albicans (setting [7]) it was 0.25 to 1 µg/mL (≈ 0.384 to 1.53 µM); in the assay with C. krusei (setting [11]), 0.25 to 1 µg/mL (≈ 0.384 to 1.53 µM); in the assay with C. krusei (setting [8]), 0.06 to 0.249 µg/mL (≈ 0.0921 to 0.382 µM); with C. parapsilosis (setting [12]) it was 0.25 to 1 µg/mL (≈ 0.384 to 1.53 µM); in the assay on C. parapsilosis (setting [9]) it was 0.25 to 1 µg/mL (≈ 0.384 to 1.53 µM).

For the compound `COc1ccc(F)cc1[C@H](Cn1c(=O)n(C(C)(C)C(=O)NC(C)(C)C)c(=O)c2c(C)c(-n3nccn3)sc21)OCCCO` [Compound I-160], the IC50 at human (hACC2) (Table 2a) lay in the range of 5 to 10 nM; against human (hACC2) (Table 2b, additional results), 5 to 10 nM; on fungal (fACC2) (Table 2a), 1 to 5 nM; at fungal (fACC2) (Table 2b, additional results) it was 1 to 5 nM. The MIC with C. albicans (setting [1]) was in the range of 2.1 to 4 µg/mL (≈ 3.41 to 6.49 µM); in the assay on C. albicans (setting [2]) it was 2.01 to 4 µg/mL (≈ 3.26 to 6.49 µM); in the assay with C. krusei (setting [3]), 0.25 to 1 µg/mL (≈ 0.405 to 1.62 µM); with C. krusei (setting [4]) it was 1.01 to 2 µg/mL (≈ 1.64 to 3.24 µM); in the assay on C. parapsilosis (setting [5]) it was 1.1 to 2 µg/mL (≈ 1.78 to 3.24 µM); in the assay on C. parapsilosis (setting [6]), 2.01 to 4 µg/mL (≈ 3.26 to 6.49 µM).
